Literature values, collected in patent US10194658B2, “High concentration low VOC liquid gibberellin” (Stoller Enterprises, Inc., priority 2015, dated 2019).

Conditions: at 20° C.

CC(O)CO (stereo not shown) [propylene glycol, propane-1,2-diol]
vapor pressure: 0.08 mm Hg
